“And” between values parts separate entries of the source, which are not always exact repeats. Identical values can stand only once. Like-named read-outs stand apart in the source and are kept apart here.
Assay: Pharmacokinetics in CD-1 mice (plasma concentrations, PK parameters)
Format: in vivo
Conditions: for concentration at 5 min / concentration at 0.5 h / concentration at 1 h / concentration at 2 h / concentration at 4 h / concentration at 24 h / concentration at 6 h: read-out: Concentration; for AUC(0-inf): read-out: AUCInf; for AUC(0-t): read-out: AUClast; for MRT inf: read-out: MRTInf_obs
Procedure: Pharmacokinetics for I-127, I-172 and I-210 were determined in Sprague Dawley rats or CD-1 mice by dosing intravenous (IV), subcutaneous (SC) or per oral (PO) using facility SOPs and sampling plasma at required time points. Species, formulation, route of administration and time points samples are listed below for each compound.
Compounds were extracted from plasma, injected on reverse phase HPLC, eluted with a gradient from 5% to 95% acetonitrile in water and quantified by mass spectrometry with internal standard. Data are expressed in ng compound per mL of plasma.

[1] = CD-1, mouse, plasma, iv, 2 mg/kg, mouse (CD1) iv 2 mg/kg, Mean
[2] = CD-1, mouse, plasma, iv, 2 mg/kg, mouse (CD1) iv 2 mg/kg, individual Mouse 1-3
[3] = CD-1, mouse, plasma, sc, 30 mg/kg, mouse (CD1) sc 30 mg/kg, Mean
[4] = CD-1, mouse, plasma, sc, 30 mg/kg, mouse (CD1) sc 30 mg/kg, individual Mouse 7-9
[5] = mouse (CD1) iv 2 mg/kg, individual Mouse 1-3, 2 mg/kg
[6] = mouse (CD1) sc 30 mg/kg, individual Mouse 7-9, 30 mg/kg

NC(=O)c1nn(-c2ccc(C(=O)NCCCCCNCCNc3cccc4c3C(=O)N(C3CCC(=O)NC3=O)C4=O)cc2)cc1NC(=O)c1coc(-c2ccnc(NCC(F)(F)F)c2)n1 (stereo not shown) [I-172, N-[3-carbamoyl-1-[4-[5-[2-[[2-(2,6-dioxo-3-piperidyl)-1,3-dioxo-isoindolin-4-yl]amino]ethylamino]pentylcarbamoyl]phenyl]pyrazol-4-yl]-2-[2-(2,2,2-trifluoroethylamino)-4-pyridyl]oxazole-4-carboxamide]
concentration at 5 min (CD-1, mouse, plasma, iv, 2 mg/kg, mouse (CD1) iv 2 mg/kg, 5 min, Mean): 3420 ng/mL
concentration at 5 min (CD-1, mouse, plasma, iv, 2 mg/kg, mouse (CD1) iv 2 mg/kg, 5 min, individual Mouse 1-3): 4150 ng/mL
concentration at 0.25 h (CD-1, mouse, plasma, iv, 2 mg/kg, mouse (CD1) iv 2 mg/kg, 0.25 h, Mean): 387 ng/mL
concentration at 0.25 h (CD-1, mouse, plasma, iv, 2 mg/kg, mouse (CD1) iv 2 mg/kg, 0.25 h, individual Mouse 1-3): 444 ng/mL
concentration at 0.5 h (CD-1, mouse, plasma, iv, 2 mg/kg, mouse (CD1) iv 2 mg/kg, 0.5 h, Mean): 123 ng/mL
concentration at 0.5 h (CD-1, mouse, plasma, iv, 2 mg/kg, mouse (CD1) iv 2 mg/kg, 0.5 h, individual Mouse 1-3): 130 ng/mL
concentration at 1 h (CD-1, mouse, plasma, iv, 2 mg/kg, mouse (CD1) iv 2 mg/kg, 1 h, Mean): 34.7 ng/mL
concentration at 1 h (CD-1, mouse, plasma, iv, 2 mg/kg, mouse (CD1) iv 2 mg/kg, 1 h, individual Mouse 1-3): 34.3 ng/mL
concentration at 2 h (CD-1, mouse, plasma, iv, 2 mg/kg, mouse (CD1) iv 2 mg/kg, 2 h, Mean): 12.6 ng/mL
concentration at 2 h (CD-1, mouse, plasma, iv, 2 mg/kg, mouse (CD1) iv 2 mg/kg, 2 h, individual Mouse 1-3): 11.5 ng/mL
concentration at 4 h (CD-1, mouse, plasma, iv, 2 mg/kg, mouse (CD1) iv 2 mg/kg, 4 h, Mean): 7.77 ng/mL
concentration at 4 h (CD-1, mouse, plasma, iv, 2 mg/kg, mouse (CD1) iv 2 mg/kg, 4 h, individual Mouse 1-3): 9.04 ng/mL
concentration at 8 h (CD-1, mouse, plasma, iv, 2 mg/kg, mouse (CD1) iv 2 mg/kg, 8 h, Mean): 2.46 ng/mL
concentration at 8 h (CD-1, mouse, plasma, iv, 2 mg/kg, mouse (CD1) iv 2 mg/kg, 8 h, individual Mouse 1-3): 2.62 ng/mL
concentration at 24 h (CD-1, mouse, plasma, iv, 2 mg/kg, mouse (CD1) iv 2 mg/kg, 24 h, individual Mouse 1-3): 2.55 ng/mL
half-life [1]: 2.53 h
AUC(0-inf) [1]: 1070 ng·h/mL
AUC(0-t) [1]: 1060 ng·h/mL
C0 (CD-1, mouse, plasma, iv, 2 mg/kg, mouse (CD1) iv 2 mg/kg, Mean, read-out: C0): 10200 ng/mL
MRT inf [1]: 0.61 h
half-life [2]: 2.71 h
AUC(0-inf) [2]: 1270 ng·h/mL
AUC(0-t) [2]: 1260 ng·h/mL
C0 (CD-1, mouse, plasma, iv, 2 mg/kg, mouse (CD1) iv 2 mg/kg, individual Mouse 1-3, read-out: C0): 12700 ng/mL
concentration at 0.25 h (CD-1, mouse, plasma, sc, 30 mg/kg, mouse (CD1) sc 30 mg/kg, 0.25 h, Mean): 43.1 ng/mL
concentration at 0.25 h (CD-1, mouse, plasma, sc, 30 mg/kg, mouse (CD1) sc 30 mg/kg, 0.25 h, individual Mouse 7-9): 34.6 ng/mL
concentration at 0.5 h (CD-1, mouse, plasma, sc, 30 mg/kg, mouse (CD1) sc 30 mg/kg, 0.5 h, Mean): 64.8 ng/mL
concentration at 0.5 h (CD-1, mouse, plasma, sc, 30 mg/kg, mouse (CD1) sc 30 mg/kg, 0.5 h, individual Mouse 7-9): 71.9 ng/mL
concentration at 1 h (CD-1, mouse, plasma, sc, 30 mg/kg, mouse (CD1) sc 30 mg/kg, 1 h, Mean): 64.8 ng/mL
concentration at 1 h (CD-1, mouse, plasma, sc, 30 mg/kg, mouse (CD1) sc 30 mg/kg, 1 h, individual Mouse 7-9): 52.6 ng/mL
concentration at 2 h (CD-1, mouse, plasma, sc, 30 mg/kg, mouse (CD1) sc 30 mg/kg, 2 h, Mean): 50.8 ng/mL
concentration at 2 h (CD-1, mouse, plasma, sc, 30 mg/kg, mouse (CD1) sc 30 mg/kg, 2 h, individual Mouse 7-9): 48 ng/mL
concentration at 4 h (CD-1, mouse, plasma, sc, 30 mg/kg, mouse (CD1) sc 30 mg/kg, 4 h, Mean): 37.3 ng/mL
concentration at 4 h (CD-1, mouse, plasma, sc, 30 mg/kg, mouse (CD1) sc 30 mg/kg, 4 h, individual Mouse 7-9): 33.3 ng/mL
concentration at 6 h (CD-1, mouse, plasma, sc, 30 mg/kg, mouse (CD1) sc 30 mg/kg, 6 h, Mean): 19.4 ng/mL
concentration at 6 h (CD-1, mouse, plasma, sc, 30 mg/kg, mouse (CD1) sc 30 mg/kg, 6 h, individual Mouse 7-9): 16 ng/mL
concentration at 24 h (CD-1, mouse, plasma, sc, 30 mg/kg, mouse (CD1) sc 30 mg/kg, 24 h, Mean): 5.33 ng/mL
concentration at 24 h (CD-1, mouse, plasma, sc, 30 mg/kg, mouse (CD1) sc 30 mg/kg, 24 h, individual Mouse 7-9): 5.4 ng/mL
half-life [3]: 8 h
AUC(0-inf) [3]: 538 ng·h/mL
AUC(0-t) [3]: 476 ng·h/mL
Cmax (CD-1, mouse, plasma, sc, 30 mg/kg, mouse (CD1) sc 30 mg/kg, Mean, read-out: Cmax): 71.2 ng/mL
MRT inf [3]: 9.4 h
Tmax (CD-1, mouse, plasma, sc, 30 mg/kg, mouse (CD1) sc 30 mg/kg, Mean, read-out: Tmax): 0.833 h
half-life [4]: 8.79 h
AUC(0-inf) [4]: 491 ng·h/mL
AUC(0-t) [4]: 422 ng·h/mL
Cmax (CD-1, mouse, plasma, sc, 30 mg/kg, mouse (CD1) sc 30 mg/kg, individual Mouse 7-9, read-out: Cmax): 71.9 ng/mL
MRT inf [4]: 10.4 h
Tmax (CD-1, mouse, plasma, sc, 30 mg/kg, mouse (CD1) sc 30 mg/kg, individual Mouse 7-9, read-out: Tmax): 0.5 h
Concentration (mouse (CD1) iv 2 mg/kg, 5 min, individual Mouse 1-3, 2 mg/kg): 2810 ng/mL and 3290 ng/mL
Concentration (mouse (CD1) iv 2 mg/kg, 0.25 h, individual Mouse 1-3, 2 mg/kg): 314 ng/mL and 404 ng/mL
Concentration (mouse (CD1) iv 2 mg/kg, 0.5 h, individual Mouse 1-3, 2 mg/kg): 102 ng/mL and 136 ng/mL
Concentration (mouse (CD1) iv 2 mg/kg, 1 h, individual Mouse 1-3, 2 mg/kg): 31.5 ng/mL and 38.2 ng/mL
Concentration (mouse (CD1) iv 2 mg/kg, 2 h, individual Mouse 1-3, 2 mg/kg): 11.7 ng/mL and 14.6 ng/mL
Concentration (mouse (CD1) iv 2 mg/kg, 4 h, individual Mouse 1-3, 2 mg/kg): 6.56 ng/mL and 7.70 ng/mL
Concentration (mouse (CD1) iv 2 mg/kg, 8 h, individual Mouse 1-3, 2 mg/kg): 2.07 ng/mL and 2.69 ng/mL
Concentration (mouse (CD1) iv 2 mg/kg, 24 h, individual Mouse 1-3, 2 mg/kg): BLOQ
AUC_%Extrap_obs (mouse (CD1) iv 2 mg/kg, Mean): 0.826%
AUClast/D (mouse (CD1) iv 2 mg/kg, Mean): 532 h·ng/mL per mg/kg
Cl_obs (mouse (CD1) iv 2 mg/kg, Mean): 31.8 mL/min/kg
Vss_obs (mouse (CD1) iv 2 mg/kg, Mean): 1.15 L/kg
AUCInf [5]: 877 ng·h/mL and 1067 ng·h/mL
AUC_%Extrap_obs [5]: 0.805% and 0.818% and 0.856%
AUClast [5]: 870 ng·h/mL and 1058 ng·h/mL
AUClast/D [5]: 632 h·ng/mL per mg/kg and 435 h·ng/mL per mg/kg and 529 h·ng/mL per mg/kg
C0 [5]: 8401 ng/mL and 9383 ng/mL
Cl_obs [5]: 26.2 mL/min/kg and 38.0 mL/min/kg and 31.2 mL/min/kg
MRTInf_obs [5]: 0.332 h and 0.362 h and 1.13 h
T1/2 [5]: 2.40 h and 2.48 h
Vss_obs [5]: 0.522 L/kg and 0.826 L/kg and 2.11 L/kg
Concentration (mouse (CD1) po 30 mg/kg, 0.25 h, individual Mouse 4-6): BLOQ
Concentration (mouse (CD1) po 30 mg/kg, 0.5 h, individual Mouse 4-6): BLOQ
Concentration (mouse (CD1) po 30 mg/kg, 1 h, individual Mouse 4-6): BLOQ
Concentration (mouse (CD1) po 30 mg/kg, 2 h, individual Mouse 4-6): BLOQ
Concentration (mouse (CD1) po 30 mg/kg, 4 h, individual Mouse 4-6): BLOQ
Concentration (mouse (CD1) po 30 mg/kg, 8 h, individual Mouse 4-6): BLOQ
Concentration (mouse (CD1) po 30 mg/kg, 24 h, individual Mouse 4-6): BLOQ
Concentration (mouse (CD1) sc 30 mg/kg, 0.25 h, individual Mouse 7-9, 30 mg/kg): 40.0 ng/mL and 54.6 ng/mL
Concentration (mouse (CD1) sc 30 mg/kg, 0.5 h, individual Mouse 7-9, 30 mg/kg): 57.6 ng/mL and 64.8 ng/mL
Concentration (mouse (CD1) sc 30 mg/kg, 1 h, individual Mouse 7-9, 30 mg/kg): 63.0 ng/mL and 78.7 ng/mL
Concentration (mouse (CD1) sc 30 mg/kg, 2 h, individual Mouse 7-9, 30 mg/kg): 46.5 ng/mL and 58.0 ng/mL
Concentration (mouse (CD1) sc 30 mg/kg, 4 h, individual Mouse 7-9, 30 mg/kg): 37.0 ng/mL and 41.6 ng/mL
Concentration (mouse (CD1) sc 30 mg/kg, 6 h, individual Mouse 7-9, 30 mg/kg): 20.7 ng/mL and 21.5 ng/mL
Concentration (mouse (CD1) sc 30 mg/kg, 24 h, individual Mouse 7-9, 30 mg/kg): 4.74 ng/mL and 5.85 ng/mL
AUC_%Extrap_obs (mouse (CD1) sc 30 mg/kg, Mean): 11.5%
AUClast/D (mouse (CD1) sc 30 mg/kg, Mean): 15.9 h·ng/mL per mg/kg
F (mouse (CD1) sc 30 mg/kg, Mean): 3.34%
AUCInf [6]: 522 ng·h/mL and 601 ng·h/mL
AUC_%Extrap_obs [6]: 14.0% and 9.60% and 11.1%
AUClast [6]: 472 ng·h/mL and 535 ng·h/mL
AUClast/D [6]: 14.1 h·ng/mL per mg/kg and 15.7 h·ng/mL per mg/kg and 17.8 h·ng/mL per mg/kg
Cmax [6]: 63.0 ng/mL and 78.7 ng/mL
F [6]: 3.05% and 3.25% and 3.74%
MRTInf_obs [6]: 8.61 h and 9.13 h
T1/2 [6]: 7.34 h and 7.89 h
Tmax [6]: 1 h

From patent publication US10874743B2, “IRAK degraders and uses thereof” (Kymera Therapeutics, Inc., priority 2017, dated 2020)
